Laboratory results reported in PMC9930781, “Design, synthesis, docking, and anticancer evaluations of new thiazolo[3,2-a] pyrimidines as topoisomerase II inhibitors” (Journal of Enzyme Inhibition and Medicinal Chemistry, 2023).

What was measured:
[1] = system: A549 non-small cell lung cancer (NSCLC) cell line; test: MTT cytotoxicity assay, A549; settings: Homo sapiens, A549, 24 h, read-out: Cytotoxicity IC50 A549± SD, MTT, A549, 24 h treatment, mean ± SD of two independent assays
Protocol: (§1) The MTT test was used to evaluate the inhibitory effects of the substances on cell proliferation in the aforementioned cell lines. This colorimetric assay targets the mitochondrial succinate dehydrogenase of living cells to change yellow tetrazolium bromide (MTT) to a purple formazan derivative. […] Then, the cells were incubated for 24 h and exposed to various chemical concentrations. 20 μL of a 5 mg/mL MTT solution was applied after a 24-h drug treatment period and incubated for 4 h. To dissolve the produced purple formazan, each well receives 100 μL of dimethyl sulfoxide (DMSO). […] The formula for calculating the relative percentage of cell viability was (A570 of treated samples/A570 of the untreated sample) × 100.

[2] = system: A498 renal cell carcinoma cell line; test: MTT cytotoxicity assay, A498; settings: Homo sapiens, A498, 24 h, read-out: Cytotoxicity IC50 A498± SD, MTT, A498, 24 h treatment, mean ± SD of two independent assays
Protocol: as §1

human topoisomerase II = human topoisomerase II (Homo sapiens, UniProt P11388); test: DNA Topo II inhibition (kDNA decatenation) assay; assay type: biochemical; settings: for IC50: kDNA decatenation, four concentrations 0.1-100 µM, mean ± SD of two independent assays
Protocol: The ATP-dependent decatenation of kinetoplast DNA (kDNA) obtained from Crithidia fasciculata, which consists of a network of numerous minicircles (2.3 Kb) and some maxicircles, was used to measure topoisomerase II inhibition. Reactions took place in 20 μL and comprised topoisomerase II, 200–300 ng of kDNA, and 120 mM KCl with 50 mM Tris-HCl, pH 8, 10 mM MgCl2, 0.5 mM ATP, and 0.5 mM dithiothreitol. In preliminary tests, the quantity of topoisomerase II (5 units) was changed to decatenate almost 100% of the kDNA under these assay circumstances. […] The products in the reaction mixture were separated by a 1% agarose gel after the reaction was complete and then could be seen after being stained with ethidium bromide (0.2 μg/mL). The gels were run at 100 V for about 40 min and visualised under UV transillumination.
This assay is based on the fact that human Topo II can decatenate interlinked double-stranded DNA molecules.

human topoisomerase II, sequence (P11388 whole entry): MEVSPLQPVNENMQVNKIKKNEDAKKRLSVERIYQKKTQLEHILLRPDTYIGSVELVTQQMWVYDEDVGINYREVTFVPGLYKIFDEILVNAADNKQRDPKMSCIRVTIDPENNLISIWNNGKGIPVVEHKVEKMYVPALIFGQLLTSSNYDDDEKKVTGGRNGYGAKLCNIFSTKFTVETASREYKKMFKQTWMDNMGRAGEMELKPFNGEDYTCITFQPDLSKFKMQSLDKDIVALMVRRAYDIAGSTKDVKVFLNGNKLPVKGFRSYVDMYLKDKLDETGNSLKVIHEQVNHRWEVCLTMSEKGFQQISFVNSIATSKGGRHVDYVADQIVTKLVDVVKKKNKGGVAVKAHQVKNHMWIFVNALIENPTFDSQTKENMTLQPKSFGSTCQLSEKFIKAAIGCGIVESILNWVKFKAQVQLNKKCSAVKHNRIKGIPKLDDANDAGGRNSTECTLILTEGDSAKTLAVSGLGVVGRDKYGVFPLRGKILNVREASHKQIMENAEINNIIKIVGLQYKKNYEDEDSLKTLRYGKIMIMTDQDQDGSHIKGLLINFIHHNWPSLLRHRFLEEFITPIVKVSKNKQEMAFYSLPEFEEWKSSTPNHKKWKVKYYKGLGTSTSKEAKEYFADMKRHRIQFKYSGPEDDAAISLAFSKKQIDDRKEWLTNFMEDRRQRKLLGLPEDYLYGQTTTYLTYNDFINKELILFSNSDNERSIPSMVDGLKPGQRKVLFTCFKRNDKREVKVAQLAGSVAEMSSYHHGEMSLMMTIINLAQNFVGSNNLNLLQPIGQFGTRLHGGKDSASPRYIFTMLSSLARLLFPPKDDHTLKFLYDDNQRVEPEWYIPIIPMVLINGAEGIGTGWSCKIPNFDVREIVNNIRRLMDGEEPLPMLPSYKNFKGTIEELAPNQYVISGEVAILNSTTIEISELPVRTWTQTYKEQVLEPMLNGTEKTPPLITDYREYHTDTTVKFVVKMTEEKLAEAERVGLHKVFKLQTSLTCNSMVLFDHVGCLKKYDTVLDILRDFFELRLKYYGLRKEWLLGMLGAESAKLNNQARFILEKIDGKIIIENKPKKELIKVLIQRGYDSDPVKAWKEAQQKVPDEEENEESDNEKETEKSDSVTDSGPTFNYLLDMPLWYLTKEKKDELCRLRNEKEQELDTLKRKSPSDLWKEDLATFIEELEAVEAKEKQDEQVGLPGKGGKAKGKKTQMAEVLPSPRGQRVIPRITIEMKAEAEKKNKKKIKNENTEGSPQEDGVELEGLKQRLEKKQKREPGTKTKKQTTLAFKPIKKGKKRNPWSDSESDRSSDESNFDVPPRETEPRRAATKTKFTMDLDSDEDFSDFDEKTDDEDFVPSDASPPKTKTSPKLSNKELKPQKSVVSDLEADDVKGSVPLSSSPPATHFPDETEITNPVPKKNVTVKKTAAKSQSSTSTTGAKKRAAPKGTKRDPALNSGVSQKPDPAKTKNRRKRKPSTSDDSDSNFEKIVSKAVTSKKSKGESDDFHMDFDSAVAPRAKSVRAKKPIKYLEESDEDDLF

Compound | melting point | IC50 [1] | IC50 [2] | %inh TOPO II (human topoisomerase II; conc 0.1 (μM)) | %inh TOPO II (human topoisomerase II; conc 1 (μM)) | %inh TOPO II (human topoisomerase II; conc 10 (μM)) | %inh TOPO II (human topoisomerase II; conc 100 (μM)) | IC50 (human topoisomerase II)
CCOC(=O)C1=C(C)N=c2sc(=Cc3cc(OC)c(OC)c(OC)c3)c(=O)n2C1c1ccc(OC)cc1OC (stereo not shown) [Compound 3d, Ethyl 5–(2,4-dimethoxyphenyl)-7-methyl-3-oxo-2–(3,4,5-trimethoxybenzylidene)-2,3-dihydro-5H-thiazolo[3,2-a]pyrimidine-6-carboxylate] | 190 to 192 °C | 12 nM | 4 nM | 28% | 41% | 59% | 85% | 2210 ± 130 nM
CCOC(=O)C1=C(C)N=c2sc(=Cc3ccc(OC)cc3)c(=O)n2C1c1ccc(OC)cc1OC (stereo not shown) [Compound 3b, Ethyl 5–(2,4-dimethoxyphenyl)-2–(4-methoxybenzylidene)-7-methyl-3-oxo-2,3-dihydro-5H-thiazolo[3,2-a]pyrimidine-6-carboxylate] | 175 to 177 °C | 24 nM | 46 nM | 19% | 30% | 48% | 80% | 6140 ± 360 nM
CCOC(=O)C1=C(C)N=C2SCC(=O)N2C1c1ccc(OC)cc1OC (stereo not shown) [Compound 3a, Ethyl 5–(2,4-dimethoxyphenyl)-7-methyl-3-oxo-3,5-dihydro-5H-thiazolo[3,2-a] pyrimidine-6-carboxylate] | 195 to 197 °C | 93 nM | 73 nM | – | – | – | – | –
